Data set [1] concerns MDA-MB-231. Put plainly: Antimigratory activity in human MDA-MB-231 cells assessed as wound diameter at 5 uM measured after 24 hrs by microscopic analysis. It counts as functional, cell-based.
Data set [2] has as its system MDA-MB-231. Put plainly: Antimigratory activity in human MDA-MB-231 cells assessed as inhibition of cell motility after 24 hrs by microscopic analysis. The data set is classed as functional, cell-based. The conditions noted are these: MDA-MB-231, 24 h.
The test system of data set [3] is MDA-MB-231. Put plainly: Inhibition of anchorage-independent colony formation in human MDA-MB-231 cells at 5 uM measured upto 21 days by soft agar colony formation assay. The data set is classed as functional, cell-based.
Data set [4] deals with MDA-MB-468. Put plainly: Inhibition of anchorage-independent colony formation in human MDA-MB-468 cells at 5 uM measured upto 21 days by soft agar colony formation assay. It counts as functional, cell-based.
Data set [5] has as its system MCF7. Put plainly: Inhibition of anchorage-independent colony formation in human MCF7 cells at 5 uM measured upto 21 days by soft agar colony formation assay. The data set is classed as functional, cell-based.
The test system of a further data set is Chorioallantoic membrane. In words: Antiangiogenic activity in Leghorn chicken fertilized egg chorioallantoic membrane assessed as reduction in number of blood vessels at 4 ug measured after 4 days by microscopic analysis. The data set is classed as functional, tissue-based. To be noted: Gallus gallus.
The nature of data set [6]: Cytotoxicity against E6/E7 immortalized human HNME cells assessed as inhibition of cell growth measured after 48 hrs by microplate reader analysis. The data set is classed as cell-based. The conditions noted are these: read-out: LD50.
The subject of data set [7] is MDA-MB-231. In words: Growth inhibition in human MDA-MB-231 cells at 10 uM after 48 hrs by MTT assay. The data set is classed as functional, cell-based. For orientation: Tetrazolium assays rely on reduction of a dye to a coloured formazan, in cell work by metabolically active cells.
Data set [8] relates to MCF7. In words: Growth inhibition in human MCF7 cells at 10 uM after 48 hrs by MTT assay. The data set is classed as functional, cell-based.
The subject of data set [9] is MDA-MB-231. In words: Induction of morphological changes in human MDA-MB-231 cells assessed as mesenchymal-epithelial transition at 10 uM by inverted microscopic analysis. The data set is classed as functional, cell-based.
For data set [10], the system named is MDA-MB-468. Put plainly: Induction of morphological changes in human MDA-MB-468 cells assessed as mesenchymal-epithelial transition at 10 uM by inverted microscopic analysis. It counts as functional, cell-based.
Data set [11] relates to MCF7. In words: Induction of morphological changes in human MCF7 cells assessed as mesenchymal-epithelial transition at 10 uM by inverted microscopic analysis. The data set is classed as functional, cell-based.
In data set [12] the test system is MDA-MB-231. In words: Antiproliferative activity against human MDA-MB-231 cells assessed as inhibition of cell growth measured after 48 hrs by microplate reader analysis. It counts as functional, cell-based. To be noted: MDA-MB-231, 48 h.
Data set [13] concerns MDA-MB-468. In words: Antiproliferative activity against human MDA-MB-468 cells assessed as inhibition of cell growth measured after 48 hrs by microplate reader analysis. The data set is classed as functional, cell-based. To be noted: MDA-MB-468, 48 h.
The test system of data set [14] is MCF7. Put plainly: Antiproliferative activity against human MCF7 cells assessed as inhibition of cell growth measured after 48 hrs by microplate reader analysis. The data set is classed as functional, cell-based. To be noted: MCF7, 48 h.
A short description of data set [15]: Selectivity index, ratio of LD50 for E6/E7 immortalized human HNME cells to IC50 for human MDA-MB-231 cells.
Data set [16] in a line: Selectivity index, ratio of LD50 for E6/E7 immortalized human HNME cells to IC50 for human MDA-MB-468 cells.
The nature of data set [17]: Selectivity index, ratio of LD50 for E6/E7 immortalized human HNME cells to IC50 for human MCF7 cells.
Data set [18] concerns MDA-MB-231. Put plainly: Cell cycle arrest in human MDA-MB-231 cells assessed as accumulation at S phase at 10 uM measured after 48 hrs by propidium iodide staining-based flow cytometric analysis relative to control. It counts as functional. On the technique in general: In flow cytometry, cells or beads pass a laser one at a time.
Data set [19] has as its system MDA-MB-468. In words: Cell cycle arrest in human MDA-MB-468 cells assessed as accumulation at S phase at 10 uM measured after 48 hrs by propidium iodide staining-based flow cytometric analysis relative to control. The data set is classed as functional.
Data set [20] concerns MDA-MB-231. In words: Antiinvasive activity in human MDA-MB-231 cells assessed as reduction in 10% FBS-induced cell invasion at 10 uM by crystal violet staining based matrigel assay relative to control. On the set-up: scale not given: the % may be the effect or the level left. The data set is classed as functional.
Data set [21] deals with MDA-MB-468. Put plainly: Antiinvasive activity in human MDA-MB-468 cells assessed as reduction in 10% FBS-induced cell invasion at 10 uM by crystal violet staining based matrigel assay relative to control. The data set is classed as functional.
Data set [22] has as its system MCF7. In words: Antiinvasive activity in human MCF7 cells assessed as reduction in 10% FBS-induced cell invasion at 10 uM by crystal violet staining based matrigel assay relative to control. The data set is classed as functional.

Activity calls are given as the source filed them. No cut-off for these calls is given here.

The IC50 is the concentration needed to halve the response being measured. For the compound `COc1ccccc1C(=O)/C=C/c1ccc(N(CCCl)CCCl)cc1`, the result in the data set with MDA-MB-231 [1] was Active. For the same compound, in the data set with MDA-MB-231 [2], the IC50 is 2.86 µM.

In the case of `CC(=O)O[C@H]1C(=O)[C@@]2(C)[C@H]([C@H](OC(=O)c3ccccc3)[C@]3(O)C[C@H](OC(=O)[C@H](O)[C@@H](NC(=O)c4ccccc4)c4ccccc4)C(C)=C1C3(C)C)[C@]1(OC(C)=O)CO[C@@H]1C[C@@H]2O` [PACLITAXEL], in the data set with MDA-MB-231 [1], the outcome was Active. Further, in the data set with MDA-MB-231 [2], the IC50 was determined as 2.01 µM. For the same compound, the inhibition result in the data set on MDA-MB-231 [3] is “Active”. Also, in the data set on MDA-MB-468 [4], the “colony formation inhibition (active/inactive)” value was “Active”. Also, the “colony formation inhibition (activity call)” value in the data set with MCF7 [5] was “Active”.

For the compound `O=C(/C=C/c1ccc(N2CCCC2)cc1)c1ccc2c(c1)OCO2`, the result with MDA-MB-231 [1] was Active. Besides, the IC50 in the data set on MDA-MB-231 [2] stood at 5.71 µM.

`COc1cccc(C(=O)/C=C/c2ccc(N3CCCC3)cc2)c1`: in the data set with MDA-MB-231 [1], the outcome was Active. Also, in the data set with MDA-MB-231 [2], the IC50 worked out at 1.99 µM.

With `COc1cc2c(c(OC)c1OC)-c1ccc(OC)c(=O)cc1[C@@H](NC(C)=O)CC2`, in the data set on MDA-MB-231 [1], the result was Active. For the same compound, the inhibition entry in the data set on MDA-MB-231 [3] and in the data set with MCF7 [5] was “Active” throughout. Further, the “colony formation inhibition (active/inactive)” value with MDA-MB-468 [4] is “Active”.

With `CSc1ccc(C(=O)/C=C/c2ccc(N3CCOCC3)cc2)cc1`, the outcome in the data set with MDA-MB-231 [1] and with Chorioallantoic membrane was Active. Besides, the IC50 in the data set on MDA-MB-231 [2] is 4.8 µM.

On to `CS(=O)(=O)c1ccc(C(=O)/C=C/c2ccc(N(CCCl)CCCl)cc2)cc1`, for which, in [6], the CC50 at 48 h is 29.4 µM. Further, the “growth inhibition (GI)” value in the data set with MDA-MB-231 [7] and in the data set with MCF7 [8] was “Active” in each case. For the same compound, the result in the data set with MDA-MB-231 [9], with MDA-MB-468 [10], with MCF7 [11], in the data set on MDA-MB-231 [1], in the data set with Chorioallantoic membrane and in the data set with MDA-MB-468 [21] was Active. The outcome in the data set on MCF7 [22] was Active. Further, the concentration for half-maximal inhibition (IC50) came to 7.44 µM in the data set on MDA-MB-231 [12], 13.3 µM in the data set on MDA-MB-468 [13], 14.1 µM in the data set on MCF7 [14] and 6.14 µM with MDA-MB-231 [2]. The “Ratio LD50/IC50” value in data set [15] stood at 3.95; in data set [16] it was 2.21; in data set [17] it was 2.08. Besides, the figures for the Activity in the data set with MDA-MB-231 [18], with MDA-MB-468 [19] and in the data set on MDA-MB-231 [20] were 28.7%, 46.8% and 80%, respectively. In addition, in the data set with MDA-MB-231 [3], the inhibition result is “Active”. Also, the “colony formation inhibition (active/inactive)” value in the data set with MDA-MB-468 [4] is “Active”. Moreover, the “colony formation inhibition (activity call)” value in the data set on MCF7 [5] was “Active”.

The values are drawn from ChEMBL document CHEMBL4334533, “Design, synthesis, and validation of novel nitrogen-based chalcone analogs against triple negative breast cancer” (Eur J Med Chem, 2020).
